Columns and labels:
[1] = tested on: retinal ganglion cells (RGCs); assay: RGC cell survival assay with murine purified RGCs, 3 days in culture (Calcein AM/Hoechst/Ethidium homodimer staining, Cellomics imager); type: cell-based, mouse; details: for RGC survival: purified mouse RGCs cultured 3 days with 25-5000 nM compound
Description: RGCs were purified from 2-5 day-old C57BL/6 mice, and cultured for 3 days in a media containing Neurobasal and B27, with or without 25-5000 nM of sunitinib (sun) or VX680. RGC survival was determined by combined staining with Calcein A M, Hoescht, and Ethidium homodimer. Images were acquired and analyzed with a Cellomics imager. Error bars: Mean±S.E.M.;
Purified mouse RGCs were cultured in the presence of sunitinib (0.5 μM), 25-5000 nM of VX680, JHU611 or JHU612, for 3 days. RGC survival was determined by combined staining with Calcein A M, Hoescht, and Ethidium homodimer. Images were acquired and analyzed with a Cellomics imager. Error bars: Mean±S.E.M.;
Purified mouse RGCs were cultured in the presence of sunitinib (0.5 μM), 25-5000 nM of VX680, JHU609 or JHU610, for 3 days. RGC survival was determined by combined staining with Calcein A M, Hoescht, and Ethidium homodimer. Images were acquired and analyzed with a Cellomics imager. Error bars: Mean±S.E.M.;
Purified mouse RGCs were cultured in the presence of sunitinib (0.5 μM), 25-5000 nM of VX680, JHU607 or JHU608, for 3 days. The percentages of RGC survival was determined by combined staining with Calcein A M, Hoescht, and Ethidium homodimer. Images were acquired and analyzed with a Cellomics imager. Error bars: Mean±S.E.M.;
RGCs were cultured with the indicated drug at the indicated concentration, cultured, and survival was monitored using a calcein AM assay with a Cellomics VTI imager (Thermo Scientific, 100 Technology Drive, Pittsburgh, Pa.) and image analysis software.

[2] = tested on: primary murine retinal ganglion cells (RGCs); assay: RGC-based high content screen of small molecule libraries (CellTiter-Glo ATP, PI/Hoechst staining); type: cell-based, mouse; details: purified primary murine RGCs, CellTiter-Glo or PI/Hoechst
Description: Survival of purified mouse RGCs with increasing concentrations of VX680 (tozasertib) was determined by measuring cellular ATP levels with CellTiter-Glo (CTG), or by combined staining with Propidium iodide (PI) and Hoescht (Hoe) (PI/Hoe) (FIG. 8A). The efficacy in promoting primary mouse RGC survival by VX680 and NCGC00188382-01 was quantified and compared to sunitinib (FIGS. 8B and 8C).

[3] = tested on: retinal ganglion cells (RGCs); assay: Time course of RGC cell survival with murine purified RGCs, up to 6 days in vitro; type: cell-based, mouse; details: for RGC survival: 6 days in vitro (DIV6), percent survival compared to zero time per FIG. 2 legend, Mean±S.E.M.
Description: FIG. 2 is a comparison of the relative efficacy of sunitinib, VX680 and neurotrophic factors in promoting RGC survival in vitro. […] Purified mouse RGCs were cultured in the presence of sunitinib (0.5 or 1 μM), VX680 (1 or 2 μM), and a combination of BDNF, CNTF, and GDNF, for up to 6 days. RGC survival (percent survival compared to zero time) was determined at the indicated day in vitro (DIV) (0, 1, 2, 3, and 6 DIV). Error bars: Mean±S.E.M.;
FIG. 3 is representative images showing the RGCs from the study described in FIG. 2;
For comparison, data from vehicle and BDNF/CNTF/GDNF also are shown.

hippocampal neurons = assay: Hippocampal neuron survival against 3-nitropropionic acid (3-NP) induced cell death, MTT assay; type: cell-based; details: cell death induced by 3-NP, VX680 at 0.5, 1, 5 and 10 μM
Description: Cell death of hippocampal neurons was induced by the mitochondrial toxin 3-nitropropionic acid (3-NP). VX680 was added to the media at concentrations of 0.5 μM, 1 μM, 5 μM and 10 μM. Cell survival was determined using a MTT assay. The effect of VX680 on cell survival was analyzed with the student t-test. Error bars: Mean±S.D.; and […]

Compound: Cc1cc(Nc2nc(Cl)nc(Sc3ccc(NC(=O)C4CC4)cc3)n2)n[nH]1 [JHU607, N-(4-(4-chloro-6-(5-methyl-1H-pyrazol-3-ylamino)-1,3,5-triazin-2-ylthio)phenyl)cyclopropanecarboxamide]
- RGC survival [1]: promote RGC survival

Compound: Cc1cc(Nc2nc(Sc3ccc(NC(=O)C4CC4)cc3)nc(N3CCNCC3)n2)n[nH]1 [JHU608, N-(4-(4-(5-methyl-1H-pyrazol-3-ylamino)-6-(piperazin-1-yl)-1,3,5-triazin-2-ylthio)phenyl)cyclopropanecarboxamide]
- RGC survival [1]: promote RGC survival

Compound: Cc1cc(Nc2nc(Sc3ccc(NC(=O)C4CC4)cc3)nc(N3CCOCC3)n2)n[nH]1 [JHU609, N-(4-(4-(5-methyl-1H-pyrazol-3-ylamino)-6-morpholino-1,3,5-triazin-2-ylthio)phenyl)cyclopropanecarboxamide]
- RGC survival [1]: promote RGC survival

Compound: Cc1cc(Nc2nc(Sc3ccc(NC(=O)C4CC4)cc3)nc(N3CCC(N4CCCC4)CC3)n2)n[nH]1 [JHU610, N-(4-(4-(5-methyl-1H-pyrazol-3-ylamino)-6-(4-(pyrrolidin-1-yl)piperidin-1-yl)-1,3,5-triazin-2-ylthio)phenyl)cyclopropanecarboxamide]
- RGC survival [1]: promote RGC survival

Compound: Cc1cc(Nc2nc(Sc3ccc(NC(=O)C4CC4)cc3)nc(N3CCC(O)CC3)n2)n[nH]1 [JHU611, N-(4-(4-(4-hydroxypiperidin-1-yl)-6-(5-methyl-1H-pyrazol-3-ylamino)-1,3,5-triazin-2-ylthio)phenyl)cyclopropanecarboxamide]
- RGC survival [1]: promote RGC survival

Compound: Cc1cc(Nc2nc(Sc3ccc(NC(=O)C4CC4)cc3)nc(N3CCCNCC3)n2)n[nH]1 [JHU612, N-(4-(4-(1,4-diazepan-1-yl)-6-(5-methyl-1H-pyrazol-3-ylamino)-1,3,5-triazin-2-ylthio)phenyl)cyclopropanecarboxamide]
- RGC survival [1]: promote RGC survival

Compound: CC(NCc1ccc2c(c1)nc(NC(=O)c1ccc(-c3cn[nH]c3)s1)n2CC(C)(C)O)C(C)(C)C (stereo not drawn) [NCGC00188382-01]
- RGC survival / neuroprotection in high content screen [2]: neuroprotective compounds

Compound: CCN(CC)CCNC(=O)c1c(C)[nH]c(/C=C2\C(=O)Nc3ccc(F)cc32)c1C [Sunitinib, sunitinib]
- RGC survival ([3]; 0.5 μM): 23.73 ± 1.17
- RGC survival ([3]; 1 μM): 26.37 ± 1.61

Compound: Cc1cc(Nc2cc(N3CCN(C)CC3)nc(Sc3ccc(NC(=O)C4CC4)cc3)n2)[nH]n1 [VX-680, Tozasertib]
- survival of hippocampal neurons (hippocampal neurons): promotes the survival of hippocampal neurons against mitochondrial injury and oxidative stress
- therapeutic window compared with sunitinib ([1]; FIG. 1, murine purified RGCs): wider therapeutic window
- cell survival promoting activity compared with sunitinib ([1]; FIG. 1, murine purified RGCs, calcein AM assay, sunitinib as positive control): more potent cell survival promoting activity than sunitinib
- RGC survival [1]: promotes retinal ganglion cell (RGC) survival in vitro
- RGC survival / neuroprotection in high content screen [2]: could promote the survival of cultured RGCs
- RGC survival / neuroprotection in high content screen ([2]; listed as VX680): neuroprotective compounds
- RGC survival ([3]; 1 μM): 49.66 ± 2.27
- RGC survival ([3]; 2 μM): 60.32 ± 2.47
- neuroprotective activity compared with sunitinib and BDNF/CNTF/GDNF combination ([3]; FIG. 2, time course 0-6 DIV): exceeds that of sunitinib and a combination of brain derived neurotrophic factor (BDNF) ciliary neurotrophic factor (CNTF), and glial-derived neurotrophic factor (GDNF)

Source: US9382229B2, “Compounds and methods of use thereof for treating neurodegenerative disorders” (THE JOHNS HOPKINS UNIVERSITY, priority 2011, dated 2016)
